Experimental data as given in ChEMBL document CHEMBL1132330 (J Med Chem, 1999).

Assays:
[1] = tested on: Substance-K receptor (Mesocricetus auratus); assay: Efficacy towards hamster Tachykinin receptor 2 was determined
[2] = molecular target: T1, Substance-K receptor (Homo sapiens, UniProt P21452); assay: The compound was tested for competition binding with [3H]NKA against the CHO cells from cloned human Tachykinin receptor 2; format: cell-based
T1 sequence (P21452 whole entry): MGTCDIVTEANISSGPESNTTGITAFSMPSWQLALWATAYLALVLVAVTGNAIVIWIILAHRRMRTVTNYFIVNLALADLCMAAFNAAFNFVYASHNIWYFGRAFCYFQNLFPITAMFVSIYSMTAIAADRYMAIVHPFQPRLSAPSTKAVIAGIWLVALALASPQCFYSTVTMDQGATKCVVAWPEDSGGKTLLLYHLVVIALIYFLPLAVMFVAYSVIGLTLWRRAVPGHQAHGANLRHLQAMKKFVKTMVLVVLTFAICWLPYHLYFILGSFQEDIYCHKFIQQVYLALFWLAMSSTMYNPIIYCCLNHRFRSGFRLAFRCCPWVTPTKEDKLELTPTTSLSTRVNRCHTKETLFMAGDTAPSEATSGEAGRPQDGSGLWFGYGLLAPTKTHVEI

[3] = molecular target: T1, Substance-K receptor; assay: Inhibitory activity against human Tachykinin receptor 2

Compound	Efficacy [1]	Ki [2]	IC50 [3]
CC(C)CC[C@H](NC(=O)[C@H](CC(C)C)NC(=O)CNC(=O)[C@@H](NC(=O)[C@H](Cc1ccc(Cl)cc1)NC(=O)[C@@H](NC(=O)[C@@H](N)CC(=O)O)[C@@H](C)O)C(C)C)C(N)=O	97.8	–	–
CC(C)CC[C@H](NC(=O)[C@H](CC(C)C)NC(=O)CNC(=O)[C@@H](NC(=O)[C@H](Cc1ccc(F)cc1)NC(=O)[C@@H](NC(=O)[C@@H](N)CC(=O)O)[C@@H](C)O)C(C)C)C(N)=O	114	–	–
CC(C)CC[C@H](NC(=O)[C@H](CC(C)C)NC(=O)CNC(=O)[C@@H](NC(=O)[C@H](Cc1ccccc1)NC(=O)[C@@H](NC(=O)[C@@H](N)CC(=O)O)[C@@H](C)O)C(C)C)C(N)=O	116	–	–
CSCC[C@H](NC(=O)[C@H](CC(C)C)NC(=O)CNC(=O)[C@@H](NC(=O)[C@H](Cc1ccccc1)NC(=O)[C@H](Cc1ccccc1)NC(=O)[C@H](CC(=O)O)NC(=O)[C@H](Cc1c[nH]cn1)NC(=O)[C@H](CCSC)NC(=O)[C@@H](N)CC(=O)O)C(C)C)C(N)=O [NEUROKININ B]	–	42.2 nM	102 nM
